Assays:
[1] = system: chondrocytes articulaires humains; test: RT-PCR mRNA expression in IL-1β-stimulated human articular chondrocytes; type: cell-based; details: IL-1β 1ng/mL, 48h, increasing doses of tolcapone, mRNA normalised to RPL13A
Text: Les cellules ont été obtenus à partir de déchets opératoires selon la réglementation en vigueur (protocole approuvé par le comité de protection des personnes (CPP) Nord-Ouest III). Après la signature du consentement libre et éclairé par les patients, des têtes fémorales, des membranes synoviales et de la moelle osseuse sont récupérées à l'issue d'opération d'arthroplastie de la hanche chez des patients arthrosiques.
Les têtes fémorales sont disséquées et des copeaux de cartilages sont réalisés. Les chondrocytes sont libérés par digestion à la pronase de type XIV (2 mg/ml pendant 15 minutes; Sigma), suivie d'une digestion à la collagénase de type II (2 mg/ml pendant une nuit; Gibco). Les cellules sont ensuite ensemencées à 4×10^4 cellules/cm^2 dans du milieu Eagle modifié de Dulbecco (DMEM) supplémenté avec 10% de sérum de veau foetal (SVF) avec un cocktail d'antibiotiques. Elles sont ensuite incubées à 37°C dans une atmosphère humidifiée contenant 5% de CO2.
Pour les trois types cellulaires, les cellules ont été amplifiées dans une enceinte humide à 37°C sous 5% de CO2. Les milieux de culture sont changés 2 à 3 fois par semaine. Un test mycoplasme a été réalisé afin de vérifier qu'elles ne sont pas contaminées. […]

[2] = system: modèle murin d'arthrose (MIA); test: Von Frey filament test (mechanical allodynia) in murine osteoarthritis model (MIA); type: in vivo, souris C57BL7; details: intra-articular injections at 1, 2, 3 and 4 weeks after induction of osteoarthritis; arthritic paw relative to contralateral paw; figure 4B
Text: (§1) Cette étude a été autorisée par le ministère de l'Enseignement Supérieur, de la Recherche et de l'Innovation après avis favorable du comité d'éthique locale, CENOMEXA (agrément n°B14118015). L'étude est réalisée au sein d'une animalerie agrée (UMS-CYCERON). Des souris C57BL7 mâles, âgées de 10 semaines ont été utilisés. Les souris étaient placées par cage de 8, en cycle inversé, nourriture et eau disponible ad libidum. L'état de santé de chaque souris était évalué quotidiennement.
(§2) Les injections intra-articulaires (MIA ou tolcapone) ont également été réalisées sous anesthésie générale. Après un repérage clinique du ligament patellaire, les injections sont faites par voie intra articulaire du genou après passage du ligament patellaire à l'aiguille 27 Gauge.
L'allodynie (douleur déclenchée pour un stimulus qui est normalement indolore) mécanique est évaluée par le test des filaments de Von Frey (BIOSEB In Vivo Research Instruments®). Ce test repose sur le principe selon lequel lorsque l'extrémité du filament (de longueur et de diamètre donnés) est appliquée perpendiculairement, la force exercée par le filament augmente jusqu'à ce que le filament fléchisse. Au-delà, la force exercée par le filament reste constante. Pour ce test, les souris sont placées dans une cage individuelle, sur une grille. Une période d'habituation de 30 minutes était requise avant le début du test. […]

[3] = system: modèle murin d'arthrose (MIA); test: Knee histology (safranine-O / Fast Green) in murine osteoarthritis model (MIA); type: in vivo, souris C57BL7; details: intra-articular injections at 1, 2, 3 and 4 weeks after induction; histology at 8 weeks; versus MIA+vehicule; figure 5
Text: as §1, §2
Les articulations sont placées dans une solution de fixation (formaldehyde 37%, PBS) pendant 3 jours, puis décalcifié à l'aide d'Osteosoft pendant 48h. Ensuite, les articulations sont conservées à -80°C dans l'Optimal Cutting Temperature compound (OCT). Des coupes de 10 µm d'épaisseur ont été réalisées à -25°C à l'aide d'un Cryostat (CM 3050 S, Leica BIOSYSTEMS, France), puis montées sur des lames de microscopies SuperFrost®. Les lames sont ensuite colorées au Fast Green puis à la safranine-O. La safranine-O permet de mettre en évidence les composants du cartilage articulaire. […]

Cc1ccc(C(=O)c2cc(O)c(O)c([N+](=O)[O-])c2)cc1 [tolcapone]
expression de gènes impliqués dans le catabolisme (tel que MMP13) ([1]; figure 3A): réduit notamment l'expression de gènes impliqués dans le catabolisme (tel que MMP13)
expression de gènes impliqués dans l'inflammation (tel que l'IL-6) ([1]; figure 3B): réduit notamment l'expression
douleur induite (Von Frey) [2]: réduit nettement la douleur induite
dommages articulaires (étude histologique) [3]: réduit les dommages articulaires
dégradation du cartilage (étude histologique) [3]: très fortement limité la dégradation du cartilage

Source: patent EP4360627A1, “TREATMENT OF OSTEOARTHRITIS WITH COMT INHIBITORS” (Institut National de la Santé et de la Recherche Médicale …, priority 2022, dated 2024)
